# Where “and” joins values, the source holds several entries; their conditions need not be identical. Identical values can stand only once.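 Results reflect a 48-hour exposure of cells in 96-well plates to compound at five concentrations. GI50 marks 50% less growth. TGI marks complete inhibition of growth.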
# Assays:
# Test in all cases: DTP human tumour cell line panel, 48 h
# M14 melanoma = tested on: M14 melanoma
# OVCAR-3 ovarian = tested on: OVCAR-3 ovarian
# SF-295 CNS = tested on: SF-295 CNS
# COLO 205 colon = tested on: COLO 205 colon
# EKVX NSCLC = tested on: EKVX NSCLC
# SR leukemia = tested on: SR leukemia
# A498 renal = tested on: A498 renal
# DU-145 prostate = tested on: DU-145 prostate
# 786-0 renal = tested on: 786-0 renal
# LOX IMVI melanoma = tested on: LOX IMVI melanoma
SMILES,GI50 (M14 melanoma),TGI (M14 melanoma),GI50 (OVCAR-3 ovarian),TGI (OVCAR-3 ovarian),GI50 (SF-295 CNS),TGI (SF-295 CNS),GI50 (COLO 205 colon),TGI (COLO 205 colon),GI50 (EKVX NSCLC),TGI (EKVX NSCLC),GI50 (SR leukemia),GI50 (A498 renal),TGI (A498 renal),GI50 (DU-145 prostate),TGI (DU-145 prostate),GI50 (786-0 renal),TGI (786-0 renal),GI50 (LOX IMVI melanoma),TGI (LOX IMVI melanoma),TGI (SR leukemia)
CCc1cc2c(cc1N1CCC(N3CCOCC3)CC1)C(C)(C)c1[nH]c3cc(C#N)ccc3c1C2=O,1.62 µM and 2.05 µM and 2.17 µM,8.88 µM and 11.9 µM and > 10 µM,1.68 µM and 1.65 µM,4 µM and 3.42 µM and 3.91 µM,2.56 µM and 2.95 µM and 1.61 µM,9.06 µM and 13.2 µM and 3.68 µM,1.95 µM and 2.21 µM and 1.64 µM,6.37 µM and 7.16 µM and 8.45 µM,1.56 µM and 2.04 µM,6.85 µM and > 10 µM,< 0.0149 µM and 0.0165 µM and 0.0525 µM,0.817 µM and 0.867 µM and 1.59 µM,4.02 µM and 4.95 µM and > 10 µM,1.67 µM and 1.46 µM and 1.95 µM,5.96 µM and 3.52 µM and 7.19 µM,1.87 µM and 1.71 µM,4.01 µM and 3.76 µM and 3.46 µM,1.63 µM and 1.73 µM and 1.52 µM,6.38 µM and 5.47 µM and 4.19 µM,
NC1=NCCN1CC(=O)O,> 10000 µM,> 10000 µM,> 10000 µM,> 10000 µM,,> 10000 µM,> 10000 µM,> 10000 µM,,> 10000 µM,> 10000 µM,> 10000 µM,> 10000 µM,> 10000 µM,> 10000 µM,> 10000 µM,> 10000 µM,> 10000 µM,> 10000 µM,> 10000 µM
COc1ccc(-c2c(-c3cc(OC)c(OC)c(OC)c3)noc2N)cc1,< 0.01 µM,> 100 µM,< 0.01 µM,0.0208 µM,< 0.01 µM,> 100 µM,< 0.0123 µM,0.0551 µM,1.03 µM,> 100 µM,< 0.01 µM,< 0.01 µM,4.37 µM,0.0187 µM,1.32 µM,< 0.017 µM,,< 0.0141 µM,> 100 µM,29.1 µM
COC(=O)[C@H](Cc1ccc(O)cc1)NC(=O)[C@@H](OC)[C@@H]1Cc2cc3cc(OC4CC(OC5CC(O)C(O)C(C)O5)C(O)C(C)O4)c(C)c(O)c3c(O)c2C(=O)[C@H]1OC1CC(OC2CC(OC3CC(C)(O)C(O)C(C)O3)C(O)C(C)O2)C(O)C(C)O1 (stereo not given in full),0.204 µM,6.43 µM,0.155 µM,> 25 µM,0.132 µM,> 25 µM,0.0932 µM,1.19 µM,0.152 µM,> 25 µM,0.0163 µM,0.0892 µM,0.451 µM,0.164 µM,> 25 µM,0.16 µM,> 25 µM,0.0316 µM,> 25 µM,> 25 µM
C/C(=C\COc1c2c(cc3c1CCO3)OC1(C=C2)OC(CC/C(C)=C/COc2c3ccoc3cc3oc(=O)ccc23)C(C)(C)O1)CCC(O)C(C)(C)O (stereo not given),85.1 µM,> 100 µM,15 µM,> 100 µM,9.09 µM,> 100 µM,23.1 µM,> 100 µM,5.93 µM,> 100 µM,5.04 µM,32.8 µM,> 100 µM,> 100 µM,> 100 µM,> 100 µM,> 100 µM,28.2 µM,> 100 µM,> 100 µM
CCCCCCCCCCCCCCCCOP(=O)(O)OP(=O)(O)OCC1OC(n2ccc(N)nc2=O)C(O)C1O (stereo not given),,> 100 µM and 98.4 µM,,> 100 µM,> 100 µM and 46 µM,> 100 µM,,> 100 µM,,> 100 µM,,> 100 µM,> 100 µM,,> 100 µM,> 100 µM and 26.2 µM,> 100 µM,> 100 µM and 28.3 µM,> 100 µM,> 100 µM
CC1=C([Te]c2ccc(O)cc2)C(=O)c2ccccc2C1=O,1.88 µM,5.05 µM,1.44 µM,2.79 µM,0.348 µM,1.98 µM,0.383 µM,1.4 µM,0.428 µM,6.58 µM,0.461 µM,1.36 µM,3.01 µM,2.32 µM,6.02 µM,2.61 µM,7.88 µM,1.69 µM,4.35 µM,2.67 µM
CCc1ccc2c(c1)N(CCO)C1=C(C(=O)OC1)C2c1cccc(Cl)c1 (stereo not given),0.584 µM,12.2 µM,0.364 µM,1.68 µM,0.382 µM,15.5 µM,0.522 µM,2.63 µM,5.33 µM,31.1 µM,0.445 µM,0.36 µM,11.4 µM,1.67 µM,13.5 µM,0.736 µM,19 µM,0.684 µM,17.7 µM,> 100 µM
COC(=O)/C=C/c1cn(C(C)=O)c2ccc(Br)cc12,28.5 µM,> 100 µM,23.9 µM,> 100 µM,16.1 µM,40.1 µM,24.8 µM,> 85 µM,28.2 µM,> 100 µM,32.5 µM,20.9 µM,45.7 µM,32.5 µM,> 100 µM,17.4 µM,39.2 µM,17.9 µM,> 77.9 µM,> 100 µM
O=C(Nc1nc2ccc(F)cc2s1)c1cccnc1Nc1ccc(Cl)cc1,2.94 µM,> 100 µM,2.11 µM,9.57 µM,1.98 µM,7.83 µM,1.72 µM,3.48 µM,2.45 µM,> 82.6 µM,2.28 µM,1.8 µM,5.46 µM,3.76 µM,> 100 µM,2.93 µM,> 100 µM,2.66 µM,> 28.8 µM,9.31 µM
Cc1cc(O)cc(C)c1/C=C/c1cncc(-c2nn[nH]n2)c1,> 25 µM,> 25 µM,> 25 µM,> 25 µM,> 25 µM,> 25 µM,> 25 µM,> 25 µM,> 25 µM,> 25 µM,> 25 µM,> 25 µM,> 25 µM,> 25 µM,> 25 µM,> 25 µM,> 25 µM,> 25 µM,> 25 µM,> 25 µM
COc1cc(O)c2c(c1)C(=O)c1cc3c(c(O)c1C2=O)C(OC1OC(C)C(O)C(O)C1OC)C(OC)C(C)(O)C3=O (stereo not given),1.69 µM,3.65 µM,1.38 µM,5.83 µM and 2.04 µM,1.53 µM,4.7 µM and 5.97 µM,1.31 µM,5.2 µM and 3.25 µM,2.74 µM,7.21 µM and 5.39 µM,2.16 µM,1.58 µM,3.13 µM and 5.31 µM,3.11 µM,11.5 µM,2.42 µM,40.5 µM,1.67 µM,4.91 µM and 7.1 µM,> 100 µM
CCOC(=O)/C(=C(/C)NCC(C)C)c1cc(O)c(O)c2c(C)cc(=O)[nH]c12,4.53 µM,> 100 µM,3.16 µM,> 100 µM,4.46 µM,48.1 µM,> 100 µM,> 100 µM,5.45 µM,> 100 µM,4.02 µM,8.31 µM,29.7 µM,10.5 µM,> 100 µM,12.2 µM,46.4 µM,5.78 µM,> 100 µM,> 100 µM
COc1cc(-c2ncn(/C=C\C(=O)OC(C)C)n2)cc(C(F)(F)F)c1,0.228 µM and 0.35 µM,4.74 µM and 14.5 µM,0.0406 µM and 0.0353 µM,1.29 µM and 0.857 µM,0.0891 µM and 0.196 µM,14.1 µM and 11.8 µM,0.0432 µM and 0.0437 µM,1.28 µM and 1.46 µM,2.6 µM,19.5 µM,0.0354 µM,0.0364 µM and < 0.0144 µM,0.673 µM and 0.0916 µM,0.238 µM and 0.2 µM,12.5 µM and 11.7 µM,0.101 µM and 0.098 µM,2.61 µM and 3.25 µM,0.0271 µM and 0.0287 µM,0.39 µM and 0.524 µM,14.3 µM and > 100 µM
O=c1c2ccccc2c2ccccc2c(=O)n1Cc1ccc2c(c1)OCO2,,> 100 µM,,> 100 µM,,> 100 µM,,> 100 µM,,> 100 µM,,,> 100 µM,,> 100 µM,,> 100 µM,,> 100 µM,84.5 µM
COc1ccc2nc3ccccc3c(NCCCN(C)CCCl)c2c1,,2.33 µM,,2.07 µM,,2.44 µM,,1.65 µM,,3.15 µM,,,2.42 µM,,1.48 µM,,1.07 µM,,1.16 µM,0.146 µM

# — PubChem BioAssay (NCI)
